Article PMC12345137 (mBio, 2025)
Where two headings read alike, the source gives them in different places. Positions of bridges follow the written chain, without caps; N, C: chain ends. Residues, ends and D or L forms follow the SMILES beside them.

Legend:
SA AgrC-I [1] = target: T1, SA AgrC-I (Staphylococcus aureus, UniProt O07911); conditions: 100 nM cognate AIP; ± SEM; -b = no inhibition recorded at the highest AIP concentration tested; determined previously; ref (1); read-out: IC50, SA AgrC-I, b-lactamase assay; cited from earlier work
[2] = system: S. epidermidis (SE) agr-III; conditions: fluorescence; ref (13); cited from earlier work
[3] = system: S. epidermidis (SE) agr-II; conditions: fluorescence; ref (13); cited from earlier work
S. epidermidis agr-I = S. epidermidis agr-I (Staphylococcus epidermidis, UniProt Q5HMY3); assay: cell-based; format: cell-based; conditions: fluorescent reporter strain; peptides tested at 1000, 50, 2.5, 0.125 nM or in dose-response
Procedure: (§1) Peptides were evaluated for the ability to interfere with agr-mediated quorum sensing in S. aureus (AH1677, AH430, AH1747, and AH1872 for agr-I–IV, respectively) ([40]) using reporter strains expressing yellow fluorescent protein (YFP) upon agr activation. Interference with agr-mediated quorum sensing in S. epidermidis (AH3408, AH3623, and AH3409 for agr-I–III, respectively) ([45]), and S. lugdunensis (AH4031 for agr-I) ([37]) was evaluated using reporter strains expressing superfolder green fluorescent protein (sGFP) upon agr activation. Overnight cultures of the reporter strains were grown in TSB medium containing chloramphenicol (CAM, 10 μg/mL for S. aureus) or erythromycin (ERM, 10 μg/mL of S. epidermidis and S. lugdunensis) and diluted 1:100 in fresh TSB medium containing the same antibiotic. Assays were performed in sterile black 96-well plates with a clear bottom. […] DMSO stock solutions of peptides (1 mM) were diluted in TSB media and added (15 μL) in technical triplicate to the 96-well plate, followed by diluted bacterial overnight cultures (135 μL). […] Wells containing 150 μL TSB medium were used to measure background fluorescence. The 96-well plates were incubated in a humidified incubator at 37°C shaking at 1,000 rpm for 22–24 h and fluorescence (for GFP: excitation 479 nm, emission 520 nm; for YFP: excitation 500 nm, emission 541 nm; automatic gain), and OD600 values were subsequently measured using a plate reader. Background fluorescence was subtracted from all wells and further normalized to the corresponding OD600 value of the respective wells. The average fluorescence of control wells was used as a relative measure for 100% activation of the agr-circuit, and bar graphs were generated using GraphPad Prism 10.4 software. All assays were performed in at least a biological duplicate.
Overnight cultures of the reporter strains were grown in TSB medium containing chloramphenicol (CAM, 10 μg/mL for S. aureus) or erythromycin (ERM, 10 μg/mL of S. epidermidis and S. lugdunensis) and diluted 1:100 in fresh TSB medium containing the same antibiotic. Assays were performed in sterile black 96-well plates with clear bottoms. Peptide solutions (15 μL) in 1:5 serial dilutions from DMSO stock solutions (1 mM) in TSB medium were added to the 96-well plate in technical duplicate followed by diluted bacterial overnight cultures (135 μL). […] Wells containing 150 μL TSB medium were used to measure background fluorescence. The 96-well plates were incubated in a humidified incubator at 37°C shaking at 1,000 rpm for 22–24 h and fluorescence (for GFP: excitation 479 nm, emission 520 nm; for YFP: excitation 500 nm, emission 541 nm; automatic gain), and OD600 values were subsequently measured using a plate reader. Background fluorescence was subtracted from all wells and further normalized to the corresponding OD600 value of the respective wells. The average fluorescence of control wells was used as a relative measure for 100% activation of the agr-circuit. Relative agr activity was plotted to obtain IC50 values by non-linear regression with variable slope using GraphPad Prism 10.4 software. All assays were performed in biological triplicate.

SA AgrC-I [4] = target: T1, SA AgrC-I; assay: β-Lactamase assay, reporter strain RN10829 (P2-agrA:P3-blaZ) with pagrC-I; format: cell-based
Source text: The β-lactamase reporter strain RN10829 (P2-agrA:P3-blaZ) ([62]), with pagrC-I ([63]), pagrC-II, pagrC-III, or pagrC-IV ([11]), substituting the native agr locus with a chromosomal integration of P2-agrA and P3-blaZ and a plasmid from which a wild-type variant of the corresponding AgrC is expressed, was used to assess inhibition and activation of the AgrC receptor via β-lactamase activity in response to varying concentrations of the QS modulating peptides. Overnight cultures of the reporter strains in TSB medium were diluted 1:250 in fresh TSB medium and grown to OD600 = 0.35–0.40 (early exponential phase) at 37°C. Peptide solutions (10 μL) in 1:10 serial dilutions from DMSO stock solutions (1 mM) in TSB medium (final concentrations = 10 μM–10 pM) were added to each well of a clear 96-well plate as well as solutions (10 μL) of cognate AIP (final concentration = 100 nM) in TSB medium followed by 80 μL of bacterial cells. […] The 96-well plates were incubated at 37°C shaking at 200 rpm for 1 h and immediately frozen down at −80°C to minimize growth during nitrocefin treatment. Next, the 96-well plates were thawed, and OD600 values were determined using a plate reader followed by the addition of 50 μL of nitrocefin solution to the wells (final concentration = 33.3 μg/mL). β-Lactamase activity was monitored at OD486 every 20 s for 10 min at 37°C using a plate-reader. Linear nitrocefin conversion rates were plotted to obtain IC50 values by non-linear regression with variable slope using GraphPad Prism 10.4 software. Assays were performed at least as duplicate determinations in biological triplicate.

SA AgrC-II = SA AgrC-II (Staphylococcus aureus, UniProt O33587); assay: β-Lactamase assay, reporter strain RN10829 (P2-agrA:P3-blaZ) with pagrC-II; format: cell-based
Source text: (§2) The β-lactamase reporter strain RN10829 (P2-agrA:P3-blaZ) ([62]), with pagrC-I ([63]), pagrC-II, pagrC-III, or pagrC-IV ([11]), substituting the native agr locus with a chromosomal integration of P2-agrA and P3-blaZ and a plasmid from which a wild-type variant of the corresponding AgrC is expressed, was used to assess inhibition and activation of the AgrC receptor via β-lactamase activity in response to varying concentrations of the QS modulating peptides. Overnight cultures of the reporter strains in TSB medium were diluted 1:250 in fresh TSB medium and grown to OD600 = 0.35–0.40 (early exponential phase) at 37°C. Peptide solutions (10 μL) in 1:10 serial dilutions from DMSO stock solutions (1 mM) in TSB medium (final concentrations = 10 μM–10 pM) were added to each well of a clear 96-well plate as well as solutions (10 μL) of cognate AIP (final concentration = 100 nM) in TSB medium followed by 80 μL of bacterial cells. Control wells for 100% β-lactamase activity were wells replacing peptide solution with TSB media (10 μL), and control wells for 0% β-lactamase activity were wells replacing both peptide and cognate AIP solutions with TSB medium (20 μL). The 96-well plates were incubated at 37°C shaking at 200 rpm for 1 h and immediately frozen down at −80°C to minimize growth during nitrocefin treatment. Next, the 96-well plates were thawed, and OD600 values were determined using a plate reader followed by the addition of 50 μL of nitrocefin solution to the wells (final concentration = 33.3 μg/mL). β-Lactamase activity was monitored at OD486 every 20 s for 10 min at 37°C using a plate-reader. Linear nitrocefin conversion rates were plotted to obtain IC50 values by non-linear regression with variable slope using GraphPad Prism 10.4 software. Assays were performed at least as duplicate determinations in biological triplicate.

SA AgrC-III = SA AgrC-III (Staphylococcus aureus, UniProt O33590); assay: β-Lactamase assay, reporter strain RN10829 (P2-agrA:P3-blaZ) with pagrC-III; format: cell-based
Source text: as §2

SA AgrC-IV = SA AgrC-IV (Staphylococcus aureus, UniProt Q309Z2); assay: β-Lactamase assay, reporter strain RN10829 (P2-agrA:P3-blaZ) with pagrC-IV; format: cell-based; conditions: 100 nM cognate AIP; ± SEM; -b = no inhibition recorded at the highest AIP concentration tested; -a = only partial inhibition observed; this study (curves in Fig. S22)
Source text: as §2

S. aureus (SA) agr-IV = conditions: fluorescence, cited from earlier work
S. aureus (SA) agr-III = conditions: fluorescence, cited from earlier work
S. aureus (SA) agr-II = conditions: fluorescence, cited from earlier work
S. aureus (SA) agr-I = conditions: fluorescence, cited from earlier work
S. aureus agr-IV = S. aureus agr-IV (Staphylococcus aureus, UniProt Q309Z2); assay: cell-based; format: cell-based; conditions: fluorescent reporter strain; peptides tested at 1000, 50, 2.5, 0.125 nM or in dose-response
Procedure: as §1, with “μL). Control wells for 100% agr activity were wells replacing the peptide solution with TSB medium (15 μL).” for “μL).”
(§3) Overnight cultures of the reporter strains were grown in TSB medium containing chloramphenicol (CAM, 10 μg/mL for S. aureus) or erythromycin (ERM, 10 μg/mL of S. epidermidis and S. lugdunensis) and diluted 1:100 in fresh TSB medium containing the same antibiotic. Assays were performed in sterile black 96-well plates with clear bottoms. Peptide solutions (15 μL) in 1:5 serial dilutions from DMSO stock solutions (1 mM) in TSB medium were added to the 96-well plate in technical duplicate followed by diluted bacterial overnight cultures (135 μL). Control wells for 100% agr activity were wells replacing the peptide solution with TSB medium (15 μL). Wells containing 150 μL TSB medium were used to measure background fluorescence. The 96-well plates were incubated in a humidified incubator at 37°C shaking at 1,000 rpm for 22–24 h and fluorescence (for GFP: excitation 479 nm, emission 520 nm; for YFP: excitation 500 nm, emission 541 nm; automatic gain), and OD600 values were subsequently measured using a plate reader. Background fluorescence was subtracted from all wells and further normalized to the corresponding OD600 value of the respective wells. The average fluorescence of control wells was used as a relative measure for 100% activation of the agr-circuit. Relative agr activity was plotted to obtain IC50 values by non-linear regression with variable slope using GraphPad Prism 10.4 software. All assays were performed in biological triplicate.

S. aureus agr-III = S. aureus agr-III (Staphylococcus aureus, UniProt O33590); assay: cell-based; conditions: fluorescent reporter strain; peptides tested at 1000, 50, 2.5, 0.125 nM or in dose-response
Procedure: as §1, with “μL). Control wells for 100% agr activity were wells replacing the peptide solution with TSB medium (15 μL).” for “μL).”
as §3

T1 sequence (O07911 entry or part of it): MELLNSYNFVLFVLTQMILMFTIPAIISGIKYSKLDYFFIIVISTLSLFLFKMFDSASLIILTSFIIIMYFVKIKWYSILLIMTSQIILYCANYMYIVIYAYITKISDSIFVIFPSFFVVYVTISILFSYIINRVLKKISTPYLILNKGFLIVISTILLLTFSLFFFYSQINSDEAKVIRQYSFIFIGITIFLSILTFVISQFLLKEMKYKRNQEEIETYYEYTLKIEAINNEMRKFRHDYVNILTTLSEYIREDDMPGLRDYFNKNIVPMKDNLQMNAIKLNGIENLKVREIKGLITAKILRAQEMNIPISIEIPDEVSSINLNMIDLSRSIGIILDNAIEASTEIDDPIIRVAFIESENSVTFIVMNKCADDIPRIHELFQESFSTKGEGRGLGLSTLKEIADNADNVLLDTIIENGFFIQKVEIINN
S. epidermidis agr-I, sequence (Q5HMY3 entry or part of it): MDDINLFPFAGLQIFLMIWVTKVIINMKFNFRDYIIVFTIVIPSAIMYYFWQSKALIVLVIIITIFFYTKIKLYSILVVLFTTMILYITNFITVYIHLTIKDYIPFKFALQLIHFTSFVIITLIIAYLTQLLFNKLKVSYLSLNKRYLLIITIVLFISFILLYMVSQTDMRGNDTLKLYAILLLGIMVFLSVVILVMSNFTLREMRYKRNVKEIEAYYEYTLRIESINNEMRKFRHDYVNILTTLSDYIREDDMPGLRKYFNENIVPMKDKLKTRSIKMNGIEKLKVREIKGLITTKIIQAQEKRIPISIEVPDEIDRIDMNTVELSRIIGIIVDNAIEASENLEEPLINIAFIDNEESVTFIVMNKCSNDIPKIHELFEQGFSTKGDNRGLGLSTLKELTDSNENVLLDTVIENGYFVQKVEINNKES
S. aureus agr-III, sequence (O33590 entry or part of it): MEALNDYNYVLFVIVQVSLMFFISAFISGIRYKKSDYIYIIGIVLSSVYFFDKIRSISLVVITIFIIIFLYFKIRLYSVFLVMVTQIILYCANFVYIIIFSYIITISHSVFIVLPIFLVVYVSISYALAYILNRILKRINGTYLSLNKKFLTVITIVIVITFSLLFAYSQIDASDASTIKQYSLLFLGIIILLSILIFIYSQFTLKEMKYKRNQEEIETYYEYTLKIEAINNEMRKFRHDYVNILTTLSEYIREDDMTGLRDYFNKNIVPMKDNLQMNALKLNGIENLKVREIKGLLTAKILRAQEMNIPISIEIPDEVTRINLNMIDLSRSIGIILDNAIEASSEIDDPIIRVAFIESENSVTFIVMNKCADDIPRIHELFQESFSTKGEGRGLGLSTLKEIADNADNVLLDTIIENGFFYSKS
SA AgrC-III, sequence (O33590 entry or part of it): as above
S. aureus agr-IV, sequence (Q309Z2 entry or part of it): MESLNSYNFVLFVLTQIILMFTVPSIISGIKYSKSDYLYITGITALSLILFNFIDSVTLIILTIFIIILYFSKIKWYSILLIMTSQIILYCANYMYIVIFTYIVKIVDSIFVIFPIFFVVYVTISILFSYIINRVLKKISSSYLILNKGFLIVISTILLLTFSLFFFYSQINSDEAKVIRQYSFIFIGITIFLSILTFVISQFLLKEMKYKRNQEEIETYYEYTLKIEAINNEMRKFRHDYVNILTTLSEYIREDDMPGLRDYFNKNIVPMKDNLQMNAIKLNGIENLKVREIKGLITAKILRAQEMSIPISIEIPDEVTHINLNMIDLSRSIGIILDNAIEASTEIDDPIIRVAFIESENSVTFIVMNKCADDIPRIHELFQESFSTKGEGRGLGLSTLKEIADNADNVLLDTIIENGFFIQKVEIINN
SA AgrC-IV, sequence (Q309Z2 entry or part of it): as above
SA AgrC-II, sequence (O33587 entry or part of it): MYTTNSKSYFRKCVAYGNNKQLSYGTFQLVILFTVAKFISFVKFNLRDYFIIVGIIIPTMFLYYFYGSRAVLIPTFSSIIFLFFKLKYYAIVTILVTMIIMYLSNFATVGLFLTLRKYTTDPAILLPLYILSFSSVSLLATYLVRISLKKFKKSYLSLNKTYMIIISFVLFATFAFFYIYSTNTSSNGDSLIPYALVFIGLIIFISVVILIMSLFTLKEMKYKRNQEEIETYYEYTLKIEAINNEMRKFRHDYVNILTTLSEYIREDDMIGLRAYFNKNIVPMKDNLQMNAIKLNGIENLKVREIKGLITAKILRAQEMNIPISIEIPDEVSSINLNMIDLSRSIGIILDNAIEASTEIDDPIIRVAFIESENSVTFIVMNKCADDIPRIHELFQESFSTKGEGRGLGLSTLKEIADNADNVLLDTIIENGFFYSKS

For “S. lugdunensis AIP-II (DMCNGYF; not fully specified; cyclic: thiolactone between Cys3 side-chain thiol and C-terminal Phe7 carboxyl; free N-terminus) [compound 9]”, the IC50 (SA AgrC-I [1]) is listed as over 1000 nM.

For `CC(C)[C@H](NC(=O)[C@H](CC(N)=O)NC(=O)[C@H](Cc1ccc(O)cc1)NC(=O)[C@@H](N)CO)C(=O)N[C@H]1CSC(=O)[C@H](Cc2ccccc2)NC(=O)[C@H](Cc2ccc(O)cc2)NC(=O)CNC(=O)CNC1=O` [compound 10, S. hominis AIP-I] (H-SYNVCGGYF; thioester 5-C; N-terminus assumed), the IC50 [2] is given as 16 nM, the IC50 [3] is given as 34 nM and the “QS interaction in words (inhibition / activation), S. epidermidis agr-I” value (S. epidermidis agr-I) is given as “activates”. The IC50 (SA AgrC-I [4]) was 224 ± 37 nM, the IC50 (SA AgrC-II) was over 1000 nM and the IC50 (SA AgrC-III) was 338 ± 83 nM. For the same molecule, the “IC50, SA AgrC-IV, b-lactamase assay” value (SA AgrC-IV) was “-b”, the “inhibition by supernatant, SA agr-IV” value (S. aureus (SA) agr-IV; by supernatant, ref (12)) was “no inhibition” and the IC50 (S. aureus (SA) agr-IV; ref (13)) was 2910 nM. The “inhibition by supernatant, SA agr-III” value (S. aureus (SA) agr-III; by supernatant, ref (12)) was ~ 80%, the IC50 (S. aureus (SA) agr-III; ref (13)) was 5 nM and the “inhibition by supernatant, SA agr-II” value (S. aureus (SA) agr-II; by supernatant, ref (12)) was ~ 70%. The IC50 (S. aureus (SA) agr-II; ref (13)) was 31 nM, the IC50 (S. aureus (SA) agr-I; ref (12)) was 0.624 nM and the IC50 (S. aureus (SA) agr-I; ref (13)) was 13 nM.

With S. simulans AIP-II P4A [compound 39] the “QS interaction in words (inhibition / activation), S. aureus agr-IV” value (S. aureus agr-IV) was “activator” and the “QS interaction in words (inhibition / activation), S. aureus agr-III” value (S. aureus agr-III) was “activator”.

For “S. saprophyticus AIP-I (INPCFGYT; not fully specified; cyclic: thiolactone between Cys4 side-chain thiol and C-terminal Thr8 carboxyl; free N-terminus) [compound 19]”, the IC50 (SA AgrC-I [1]) is given as 360 ± 30 nM.
